Measured values as given in patent publication US11160837B2, “Megamonas funiformis and applications thereof” (BGI SHENZHEN, priority 2017, dated 2021).

System: AF24-28AC
Test: Antibiotic sensitivity of AF24-28AC by the drug sensitive paper method
Assay type: cell-based, Megamonas funiformis
Settings: for Resistance / sensitivity of AF24-28AC to the antibiotic: drug sensitive paper method, result in words
Method: The sensitivity of AF24-28AC to 20 common antibiotics was tested by the drug sensitive paper method. 100 μl of AF24-28AC bacterial solution cultured to the logarithmic phase was spread plated. Antibiotic susceptibility papers (purchased from Hangzhou Microbial Reagent Co. LTD.) were affixed on the medium surface of plates, cultured at 37° C. for 48 hours, after which the size of inhibition zone was measured.

Molecule: Cc1onc(-c2ccccc2)c1C(=O)N[C@@H]1C(=O)N2[C@@H]1SC(C)(C)[C@@H]2C(=O)O [Oxacillin]
- Resistance / sensitivity of AF24-28AC to the antibiotic: resistant

Molecule: CN(C)[C@@H]1C(=O)C(C(N)=O)=C(O)[C@@]2(O)C(=O)C3=C(O)c4c(O)cccc4[C@@](C)(O)[C@H]3C[C@@H]12 [Acheomycin]
- Diameter of inhibition zone (antibiotic susceptibility papers on plates spread with AF24-28AC, 37° C., 48 hours): 4.2 cm

Molecule: CCN1CCN(C(=O)N[C@@H](C(=O)N[C@@H]2C(=O)N3C(C(=O)O)=C(CSc4nnnn4C)CS[C@H]23)c2ccc(O)cc2)C(=O)C1=O [Cefoperazone]
- Resistance / sensitivity of AF24-28AC to the antibiotic: resistant

Molecule: Penicillin
- Resistance / sensitivity of AF24-28AC to the antibiotic: resistant
